Experimental data from patent US10538535B2, “Antitumoral compounds” (priority 2017, dated 2020).
Read-outs that look alike come from different tables or passages of the source.

Experiments:
[1] = system: H526 tumors; experiment: In vivo xenograft, human lung (SCLC) H526; conditions: iv weekly, 32 and ET-736 0.5 mg/Kg
[2] = system: H460 tumors; conditions: iv, 0.5 mg/kg
Experimental: (§2) Female athymic nu/nu mice (Harlan Laboratories Models, S. L. Barcelona, Spain or Envigo, Spain) were utilized for all experiments. Animal were housed in individually ventilated cages Sealsafe® Plus, Techniplast S.P.A.), up to ten per cage on a 12-hour light-dark cycle at 21-23° C. and 40-60% humidity. […] Animals were acclimated for at least 5 days prior to tumor implantation with a tumor cell suspension.
H460 cells were maintained in vitro at 37° C. with 5% CO2 in Dulbecco's Modified Eagle's Medium (Sigma-Aldrich, Co). Culture cells were passaged every 3 to 5 days upon reaching confluence. Each animal was subcutaneously implanted (on the right flank using 26 G needle and a 1 cc syringe) at 4-6 weeks of age with 5×10^6 H460 cells suspended in 0.05 mL of a solution consisting of 50% Matrigel® (Corning Incorporated Life Sciences) and 50% medium without serum or antibiotics.
(§3) Treatment tolerability was assessed by monitoring body weight evolution, clinical signs of systemic toxicity, as well as evidences of local damage in the injection site.
(§4) Treatments producing >20% lethality and/or 20% net body weight loss were considered toxic.

[3] = system: H82 tumors; experiment: In vivo xenograft, human lung (SCLC) H82; conditions: iv weekly, 32 and ET-736 0.5 mg/Kg
Experimental: Female athymic nu/nu mice (Harlan Laboratories Models, S. L. Barcelona, Spain or Envigo, Spain) were utilized for all experiments. Animal were housed in individually ventilated cages Sealsafe® Plus, Techniplast S.P.A.), up to ten per cage on a 12-hour light-dark cycle at 21-23° C. and 40-60% humidity. Mice were allowed free access to irradiated standard rodent diet (Tecklad 2914C) and sterilized water. Animals were acclimated for at least 5 days prior to tumor implantation with a tumor cell suspension.
H82 cells were grown as a suspension and maintained by addition of fresh medium, as the cell density increases, every 2 to 3 days. Every week, culture was reestablished by centrifugation of the suspension with subsequent resuspension in fresh medium at a concentration of 1×10^5 cell/ml. Animals were subcutaneously implanted (on the right flank using 26 G needle and a 1 cc syringe) at 4-6 weeks of age with 5×10^6 H82 cells, suspended in 0.05 mL of a solution consisting of 50% Matrigel® (Corning Incorporated Life Sciences) and 50% medium without serum or antibiotics.
as §3
(§5) In xenograft studies with other cell lines: • Tumor volume was calculated using the equation (a·b^2)/2, where a: length (longest diameter) and b: width (shortest diameter) were measured in mm by using digital caliper (Fowler Sylvac, S235PAT).
as §4
Tables and figures summarize the data obtained from complete experimental groups, i.e. those groups keeping the initial number of animals, n=8-10.

[4] = system: A2780 tumors; conditions: A2780 xenograft
Experimental: as §2
Culture cells were passaged every 3 to 5 days upon reaching confluence. Each animal was subcutaneously implanted (on the right flank using 26 G needle and a 1 cc syringe) at 4-6 weeks of age with 10×10^6 A2780 cells suspended in 0.05 mL of a solution consisting of 50% Matrigel® (Corning Incorporated Life Sciences) and 50% medium without serum or antibiotics.
as §3, §5, §4

[5] = system: MDA-MB-231 tumors; conditions: iv, 0.5 mg/kg
Experimental: as §2
MDA-MB-231 cells were maintained in vitro at 37° C. with 5% CO2 in Dulbecco's Modified Eagle's Medium (Sigma-Aldrich, Co). Culture cells were passaged every 3 to 5 days upon reaching confluence.
as §3, §5, §4

[6] = system: MDA-MB-231 cells; experiment: cells; conditions: Homo sapiens, MDA-MB-231, 72 h
Summary of the method: (§1)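 Cells seeded at 5000/well, attached 18 h, then treated 72 h with ten 2/5 serial dilutions (10 to 0.003 μg/mL, 1% final DMSO) in triplicate. Growth measured by SRB staining after glutaraldehyde fixation, with time-zero plate; values from NCI algorithm and four-parameter logistic fit.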

[7] = system: HT29 cells; experiment: cells; conditions: Homo sapiens, HT-29, 72 h
Summary of the method: as §1

[8] = system: A549 cells; experiment: cells; conditions: Homo sapiens, A549, 72 h
Summary of the method: as §1

[9] = system: PSN1 cells; experiment: cells; conditions: Homo sapiens, PSN1, 72 h
Summary of the method: as §1

Structure (SMILES): COc1c(C)cc2c(c1O)[C@@H]1[C@@H]3[C@@H]4SC[C@]5(NCCc6c5oc5ccccc65)C(=O)OC[C@@H](c5c6c(c(C)c(OC(C)=O)c54)OCO6)N3[C@@H](O)[C@H](C2)N1C [Compound 32]
- Median Tumor Volume ([1]; Table 63, Day 0): 212.1 mm^3
- Median Tumor Volume ([1]; Table 63, Day 2): 277.3 mm^3
- Median Tumor Volume ([1]; Table 63, Day 4): 127.0 mm^3
- Median Tumor Volume ([1]; Table 63, Day 7): 95.0 mm^3
- Median Tumor Volume ([1]; Table 63, Day 9): 63.1 mm^3
- Median Tumor Volume ([1]; Table 63, Day 11): 62.5 mm^3
- Median Tumor Volume ([1]; Table 63, Day 14): 62.5 mm^3
- Median Tumor Volume ([1]; Table 63, Day 16): 62.5 mm^3
- Median Tumor Volume ([1]; Table 63, Day 21): 4.0 mm^3
- Median Tumor Volume ([1]; Table 63, Day 28): 4.0 mm^3
- Median Tumor Volume ([1]; Table 63, Day 35): 55.3 mm^3
- Median Tumor Volume ([1]; Table 63, Day 42): 85.3 mm^3
- Median Tumor Volume ([1]; Table 63, Day 49): 185.6 mm^3
- Median Tumor Volume ([1]; Table 63, Day 56): 169.1 mm^3
- Median Tumor Volume ([1]; Table 63, Day 63): 62.5 mm^3
- Median Tumor Volume ([1]; Table 63, Day 70): 88.9 mm^3
- Median Tumor Volume ([1]; Table 63, Day 77): 280.6 mm^3
- Median Tumor Volume ([1]; Table 63, Day 84): 694.2 mm^3
- Median Tumor Volume ([1]; Table 63, Day 91): 1150.9 mm^3
- Median Tumor Volume ([2]; 0 h): 183.9 mm^3
- Median Tumor Volume ([2]; 48 h): 455.2 mm^3
- Median Tumor Volume ([2]; 120 h): 784.8 mm^3
- Median Tumor Volume ([2]; 168 h): 837.4 mm^3
- Median Tumor Volume ([2]; 336 h): 1845.5 mm^3
- Median Tumor Volume ([2]; 384 h): 2025.0 mm^3
- Median Tumor Volume ([3]; Table 64, Day 0): 171.6 mm^3
- Median Tumor Volume ([3]; Table 64, Day 2): 309.4 mm^3
- Median Tumor Volume ([3]; Table 64, Day 5): 485.0 mm^3
- Median Tumor Volume ([3]; Table 64, Day 7): 708.4 mm^3
- Median Tumor Volume ([3]; Table 64, Day 9): 972.6 mm^3
- Median Tumor Volume ([3]; Table 64, Day 12): 1101.6 mm^3
- Median Tumor Volume ([3]; Table 64, Day 14): 1339.6 mm^3
- Median Tumor Volume ([3]; Table 64, Day 16): 1430.3 mm^3
- Median Tumor Volume ([3]; Table 64, Day 19): 1885.7 mm^3
- Median Tumor Volume ([4]; Day 0): 168.6 mm^3
- Median Tumor Volume ([4]; Day 2): 262.9 mm^3
- Median Tumor Volume ([4]; Day 5): 572.7 mm^3
- Median Tumor Volume ([4]; Day 7): 997.5 mm^3
- Median Tumor Volume ([4]; Day 9): 1359.9 mm^3
- Median Tumor Volume ([4]; Day 12): 1715.0 mm^3
- Median Tumor Volume ([4]; Day 14): 2025.0 mm^3
- Median Tumor Volume ([4]; Day 16): 2025.0 mm^3
- Median Tumor Volume ([5]; 0 h): 150.2 mm^3
- Median Tumor Volume ([5]; 48 h): 233.6 mm^3
- Median Tumor Volume ([5]; 120 h): 310.6 mm^3
- Median Tumor Volume ([5]; 168 h): 386.1 mm^3
- Median Tumor Volume ([5]; 336 h): 560.3 mm^3
- Median Tumor Volume ([5]; 384 h): 649.5 mm^3
- Median Tumor Volume ([5]; 456 h): 853.0 mm^3
- Median Tumor Volume ([5]; 504 h): 1017.5 mm^3
- Median Tumor Volume ([5]; 552 h): 1263.2 mm^3
- Median Tumor Volume ([5]; 672 h): 1726.6 mm^3
- Median Tumor Volume ([5]; 720 h): 1892.6 mm^3
- GI50 [6]: 4.76 nM
- CC50 ([6]; read-out: LC50): > 13.2 nM
- IC (TGI) ([6]; read-out: TGI): 10.5 nM
- GI50 [7]: 6.88 nM
- CC50 ([7]; read-out: LC50): > 13.2 nM
- IC (TGI) ([7]; read-out: TGI): > 13.2 nM
- GI50 [8]: 6.88 nM
- CC50 ([8]; read-out: LC50): > 13.2 nM
- IC (TGI) ([8]; read-out: TGI): > 13.2 nM
- GI50 [9]: 6.09 nM
- CC50 ([9]; read-out: LC50): 12 nM
- IC (TGI) ([9]; read-out: TGI): 8.34 nM
